Here are results for one molecule from PMC8500670, “A selective WDR5 degrader inhibits acute myeloid leukemia in patient-derived mouse models” (Science translational medicine, 2021).

The inhibition is the change of the read-out against control, counted positive when it falls.

Test in all cases: biochemical
One assay addresses T1, GLP (Homo sapiens, UniProt Q9H9B1).
T1 construct: gene EHMT1
T1 sequence (Q9H9B1 1-1298): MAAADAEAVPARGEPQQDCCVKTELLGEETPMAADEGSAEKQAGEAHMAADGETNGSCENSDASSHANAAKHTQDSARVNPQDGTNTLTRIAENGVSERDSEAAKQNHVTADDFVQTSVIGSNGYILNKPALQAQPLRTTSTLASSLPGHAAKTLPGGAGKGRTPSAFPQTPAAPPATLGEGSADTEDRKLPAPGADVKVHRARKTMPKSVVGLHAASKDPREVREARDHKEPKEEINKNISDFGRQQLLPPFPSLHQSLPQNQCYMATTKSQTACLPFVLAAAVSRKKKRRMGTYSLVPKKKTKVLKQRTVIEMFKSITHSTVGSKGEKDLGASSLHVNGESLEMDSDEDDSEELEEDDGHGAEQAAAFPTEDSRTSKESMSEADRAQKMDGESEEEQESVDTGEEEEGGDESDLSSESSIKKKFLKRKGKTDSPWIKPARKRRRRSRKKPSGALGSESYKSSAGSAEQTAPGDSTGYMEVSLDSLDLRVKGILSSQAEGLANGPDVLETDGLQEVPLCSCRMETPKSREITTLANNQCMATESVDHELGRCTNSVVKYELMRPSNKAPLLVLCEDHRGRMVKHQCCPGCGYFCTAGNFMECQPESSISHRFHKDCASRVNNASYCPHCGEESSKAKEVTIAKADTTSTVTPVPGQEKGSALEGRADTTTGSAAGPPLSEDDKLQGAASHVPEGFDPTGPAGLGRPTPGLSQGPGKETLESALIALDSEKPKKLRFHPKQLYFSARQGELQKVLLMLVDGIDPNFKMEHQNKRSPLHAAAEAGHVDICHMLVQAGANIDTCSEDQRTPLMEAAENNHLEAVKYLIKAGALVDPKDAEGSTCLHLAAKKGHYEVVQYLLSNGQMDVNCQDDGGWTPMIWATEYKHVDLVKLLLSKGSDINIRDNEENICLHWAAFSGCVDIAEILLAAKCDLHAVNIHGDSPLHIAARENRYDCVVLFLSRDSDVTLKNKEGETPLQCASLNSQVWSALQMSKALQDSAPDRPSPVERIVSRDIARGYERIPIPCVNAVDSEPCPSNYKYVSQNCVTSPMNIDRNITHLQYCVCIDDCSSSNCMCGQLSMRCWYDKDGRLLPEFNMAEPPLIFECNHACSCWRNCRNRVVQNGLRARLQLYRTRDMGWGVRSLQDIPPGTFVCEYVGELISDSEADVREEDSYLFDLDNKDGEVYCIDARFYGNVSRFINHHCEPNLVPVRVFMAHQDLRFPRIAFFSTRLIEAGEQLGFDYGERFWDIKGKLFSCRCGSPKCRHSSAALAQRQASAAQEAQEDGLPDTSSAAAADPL
The arrangement: protein methyltransferase selectivity panel, enzyme activity relative to DMSO controls, single concentration in duplicate. To be noted: Substrate:=Histone H3 1-21. As for the experimental part: (§1) We next assessed selectivity of MS67 against 22 protein methyltransferases (table S2) and a broad panel of common drug targets including 45 kinases (table S3) and 44 G protein–coupled receptors (GPCR), ion channels, and transporters (table S4). […] We subsequently determined that MS67 had moderate binding affinity (Ki = 1.0 ± 0.8 μM) to Sigma 2 receptor (fig. S10).

The target in a further assay is T2, Sigma 1 (Homo sapiens, UniProt Q99720).
T2 construct: gene SIGMAR1
T2 sequence (Q99720 whole entry): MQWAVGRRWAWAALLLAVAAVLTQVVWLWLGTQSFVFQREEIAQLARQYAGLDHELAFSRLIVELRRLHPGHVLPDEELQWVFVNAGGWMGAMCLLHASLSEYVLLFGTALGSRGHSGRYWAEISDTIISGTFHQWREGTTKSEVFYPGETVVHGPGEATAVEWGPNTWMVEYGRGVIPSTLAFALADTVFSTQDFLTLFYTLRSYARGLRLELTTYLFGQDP
The arrangement: GPCR, ion channel and transporter panel, per cent inhibition of binding, mean of four. As for the experimental part: as §1

A further assay deals with T3, H3 (Homo sapiens, UniProt Q9Y5N1).
T3 construct: gene HRH3
On the set-up: GPCR, ion channel and transporter panel, per cent inhibition of binding, mean of four. On the procedure: as §1

Another assay addresses T4, H4 (Homo sapiens, UniProt Q9H3N8).
T4 construct: gene HRH4
On the set-up: GPCR, ion channel and transporter panel, per cent inhibition of binding, mean of four. On the procedure: as §1

The target in the next assay is T5, M2 (Homo sapiens, UniProt P08172).
T5 construct: gene CHRM2
On the set-up: GPCR, ion channel and transporter panel, per cent inhibition of binding, mean of four. As for the experimental part:
as §1

The target of the next assay is T6, M1 (Homo sapiens, UniProt P11229).
T6 construct: gene CHRM1
The arrangement: GPCR, ion channel and transporter panel, per cent inhibition of binding, mean of four. On the procedure: as §1

In the next assay the target is T7, M4 (Homo sapiens, UniProt P08173).
T7 construct: gene CHRM4
On the set-up: GPCR, ion channel and transporter panel, per cent inhibition of binding, mean of four. On the procedure:
as §1

For the next assay, the target named is T8, 5-HT3 (Homo sapiens, UniProt P46098).
T8 construct: gene HTR3A
On the set-up: GPCR, ion channel and transporter panel, per cent inhibition of binding, mean of four. As for the experimental part:
as §1

A further assay has as its target PRMT5/MEP50 Complex (Homo sapiens, UniProt O14744). On the set-up: Complex; protein methyltransferase selectivity panel, enzyme activity relative to DMSO controls, single concentration in duplicate. The following applies: Substrate:=Histone H2A. On the procedure: as §1
For the next assay, the target named is EZH2 Complex (Homo sapiens, UniProt Q15910). The arrangement: Complex; protein methyltransferase selectivity panel, enzyme activity relative to DMSO controls, single concentration in duplicate. To be noted: Substrate:=Core Histone. On the procedure:
as §1

For a further assay, the target named is EZH1 Complex (Homo sapiens, UniProt Q92800). The arrangement: Complex; protein methyltransferase selectivity panel, enzyme activity relative to DMSO controls, single concentration in duplicate. The following applies: Substrate:=Core Histone. As for the experimental part:
as §1

Where [1] appears, read: read-out: Enzyme % Activity (relative to DMSO controls) / MS67 / 10 / Data 1:
Where [2] appears, read: read-out: Enzyme % Activity (relative to DMSO controls) / MS67 / 10 / Data 2:

Read-outs that look alike come from different tables or passages of the source.

EZH1 Complex, sequence (Q92800 whole entry): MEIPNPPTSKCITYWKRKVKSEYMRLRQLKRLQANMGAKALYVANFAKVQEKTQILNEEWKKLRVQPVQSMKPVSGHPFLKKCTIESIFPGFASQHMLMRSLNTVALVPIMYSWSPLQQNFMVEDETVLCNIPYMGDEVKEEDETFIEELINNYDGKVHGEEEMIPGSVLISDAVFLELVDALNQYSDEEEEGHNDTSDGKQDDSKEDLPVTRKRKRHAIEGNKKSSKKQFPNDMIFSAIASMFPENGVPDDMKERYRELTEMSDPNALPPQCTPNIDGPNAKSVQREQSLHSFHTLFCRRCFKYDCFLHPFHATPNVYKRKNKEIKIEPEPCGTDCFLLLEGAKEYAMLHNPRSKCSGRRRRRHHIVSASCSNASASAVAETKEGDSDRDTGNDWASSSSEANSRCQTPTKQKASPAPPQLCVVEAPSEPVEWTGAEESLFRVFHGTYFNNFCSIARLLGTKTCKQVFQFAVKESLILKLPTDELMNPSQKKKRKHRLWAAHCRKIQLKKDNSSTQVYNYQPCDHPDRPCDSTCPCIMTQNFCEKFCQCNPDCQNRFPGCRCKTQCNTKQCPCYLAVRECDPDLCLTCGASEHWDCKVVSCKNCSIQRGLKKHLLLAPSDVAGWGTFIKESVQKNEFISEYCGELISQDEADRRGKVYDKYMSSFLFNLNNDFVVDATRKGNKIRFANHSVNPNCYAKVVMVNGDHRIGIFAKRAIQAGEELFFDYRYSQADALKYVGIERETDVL
EZH1 Complex, sequence (O75530 whole entry partner): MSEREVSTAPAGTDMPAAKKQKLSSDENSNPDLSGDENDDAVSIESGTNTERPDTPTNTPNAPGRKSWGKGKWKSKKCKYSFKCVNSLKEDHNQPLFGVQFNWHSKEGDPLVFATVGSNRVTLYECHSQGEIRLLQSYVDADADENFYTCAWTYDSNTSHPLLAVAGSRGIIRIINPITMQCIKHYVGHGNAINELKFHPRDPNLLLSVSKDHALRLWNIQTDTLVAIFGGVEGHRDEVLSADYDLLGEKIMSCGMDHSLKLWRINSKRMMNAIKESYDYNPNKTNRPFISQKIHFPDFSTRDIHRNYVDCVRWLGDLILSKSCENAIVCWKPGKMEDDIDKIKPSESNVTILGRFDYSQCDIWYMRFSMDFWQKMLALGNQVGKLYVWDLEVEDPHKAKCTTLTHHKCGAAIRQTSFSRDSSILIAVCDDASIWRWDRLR
EZH1 Complex, sequence (Q09028 whole entry partner): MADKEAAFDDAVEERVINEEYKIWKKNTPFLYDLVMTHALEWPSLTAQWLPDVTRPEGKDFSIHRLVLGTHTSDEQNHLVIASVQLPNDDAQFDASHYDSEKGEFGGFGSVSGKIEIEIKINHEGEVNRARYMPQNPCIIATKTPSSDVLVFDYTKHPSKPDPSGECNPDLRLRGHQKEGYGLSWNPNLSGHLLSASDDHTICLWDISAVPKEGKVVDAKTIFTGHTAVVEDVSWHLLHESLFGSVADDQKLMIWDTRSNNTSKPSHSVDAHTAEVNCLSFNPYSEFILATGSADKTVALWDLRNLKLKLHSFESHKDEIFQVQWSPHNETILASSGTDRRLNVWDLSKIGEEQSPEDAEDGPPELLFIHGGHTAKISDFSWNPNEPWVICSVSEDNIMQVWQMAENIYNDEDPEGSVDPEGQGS
EZH1 Complex, sequence (Q15022 whole entry partner): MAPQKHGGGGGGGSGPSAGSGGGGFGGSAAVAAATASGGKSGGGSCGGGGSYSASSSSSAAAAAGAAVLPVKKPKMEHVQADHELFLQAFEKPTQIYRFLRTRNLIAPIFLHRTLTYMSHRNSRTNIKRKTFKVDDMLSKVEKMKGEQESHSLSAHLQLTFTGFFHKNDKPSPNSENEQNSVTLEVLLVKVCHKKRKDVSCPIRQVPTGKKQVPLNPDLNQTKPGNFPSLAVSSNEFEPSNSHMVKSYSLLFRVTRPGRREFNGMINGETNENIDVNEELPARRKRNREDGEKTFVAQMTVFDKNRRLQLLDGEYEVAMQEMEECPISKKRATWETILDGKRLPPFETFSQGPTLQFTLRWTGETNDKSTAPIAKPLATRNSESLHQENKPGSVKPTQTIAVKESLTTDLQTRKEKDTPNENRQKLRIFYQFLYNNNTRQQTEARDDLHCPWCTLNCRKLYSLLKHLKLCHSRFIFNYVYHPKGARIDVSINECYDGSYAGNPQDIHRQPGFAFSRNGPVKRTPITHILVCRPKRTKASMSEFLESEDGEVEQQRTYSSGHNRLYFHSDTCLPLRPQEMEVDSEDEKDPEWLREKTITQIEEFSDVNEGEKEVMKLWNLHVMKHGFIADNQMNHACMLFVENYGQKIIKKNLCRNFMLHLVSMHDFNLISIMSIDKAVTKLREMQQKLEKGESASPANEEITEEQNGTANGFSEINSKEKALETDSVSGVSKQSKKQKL
EZH1 Complex, sequence (Q6ZN18 whole entry partner): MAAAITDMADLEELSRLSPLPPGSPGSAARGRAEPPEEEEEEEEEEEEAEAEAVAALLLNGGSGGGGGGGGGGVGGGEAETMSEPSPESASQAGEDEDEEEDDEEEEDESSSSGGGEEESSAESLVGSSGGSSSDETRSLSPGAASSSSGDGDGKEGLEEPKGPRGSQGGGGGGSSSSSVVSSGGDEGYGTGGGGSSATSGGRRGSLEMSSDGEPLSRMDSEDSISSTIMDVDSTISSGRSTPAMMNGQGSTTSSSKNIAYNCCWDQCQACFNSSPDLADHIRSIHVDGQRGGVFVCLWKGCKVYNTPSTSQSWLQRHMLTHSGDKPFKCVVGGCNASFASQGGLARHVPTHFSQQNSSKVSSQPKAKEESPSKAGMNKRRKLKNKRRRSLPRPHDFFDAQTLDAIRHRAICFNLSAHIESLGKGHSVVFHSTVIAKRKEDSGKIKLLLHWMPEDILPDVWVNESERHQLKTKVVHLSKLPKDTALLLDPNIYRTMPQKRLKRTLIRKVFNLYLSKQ
EZH2 Complex, sequence (Q15910 whole entry): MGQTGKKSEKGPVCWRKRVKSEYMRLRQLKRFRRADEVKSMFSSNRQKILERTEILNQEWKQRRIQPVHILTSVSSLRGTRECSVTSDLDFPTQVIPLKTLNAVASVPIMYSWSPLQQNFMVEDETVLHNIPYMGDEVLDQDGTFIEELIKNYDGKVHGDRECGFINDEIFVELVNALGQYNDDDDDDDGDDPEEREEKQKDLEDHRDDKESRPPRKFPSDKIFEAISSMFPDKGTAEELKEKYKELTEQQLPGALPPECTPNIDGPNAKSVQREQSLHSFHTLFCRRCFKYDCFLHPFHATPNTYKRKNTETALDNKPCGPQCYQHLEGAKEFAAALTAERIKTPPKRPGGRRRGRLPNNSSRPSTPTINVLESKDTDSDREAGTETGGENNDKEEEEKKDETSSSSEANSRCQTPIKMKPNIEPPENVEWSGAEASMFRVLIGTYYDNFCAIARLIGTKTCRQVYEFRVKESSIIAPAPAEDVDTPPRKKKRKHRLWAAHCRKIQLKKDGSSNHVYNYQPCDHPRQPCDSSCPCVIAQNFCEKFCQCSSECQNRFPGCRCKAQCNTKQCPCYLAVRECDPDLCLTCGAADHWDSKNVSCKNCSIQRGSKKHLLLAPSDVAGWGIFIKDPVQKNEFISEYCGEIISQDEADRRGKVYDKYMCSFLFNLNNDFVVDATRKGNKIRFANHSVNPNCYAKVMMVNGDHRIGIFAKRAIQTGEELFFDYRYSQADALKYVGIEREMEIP
EZH2 Complex, sequence (O75530 whole entry partner): as the sequence (O75530 whole entry partner) above
EZH2 Complex, sequence (Q09028 whole entry partner): as the sequence (Q09028 whole entry partner) above
EZH2 Complex, sequence (Q15022 whole entry partner): as the sequence (Q15022 whole entry partner) above
EZH2 Complex, sequence (Q6ZN18 whole entry partner): as the sequence (Q6ZN18 whole entry partner) above
PRMT5/MEP50 Complex, sequence (O14744 whole entry): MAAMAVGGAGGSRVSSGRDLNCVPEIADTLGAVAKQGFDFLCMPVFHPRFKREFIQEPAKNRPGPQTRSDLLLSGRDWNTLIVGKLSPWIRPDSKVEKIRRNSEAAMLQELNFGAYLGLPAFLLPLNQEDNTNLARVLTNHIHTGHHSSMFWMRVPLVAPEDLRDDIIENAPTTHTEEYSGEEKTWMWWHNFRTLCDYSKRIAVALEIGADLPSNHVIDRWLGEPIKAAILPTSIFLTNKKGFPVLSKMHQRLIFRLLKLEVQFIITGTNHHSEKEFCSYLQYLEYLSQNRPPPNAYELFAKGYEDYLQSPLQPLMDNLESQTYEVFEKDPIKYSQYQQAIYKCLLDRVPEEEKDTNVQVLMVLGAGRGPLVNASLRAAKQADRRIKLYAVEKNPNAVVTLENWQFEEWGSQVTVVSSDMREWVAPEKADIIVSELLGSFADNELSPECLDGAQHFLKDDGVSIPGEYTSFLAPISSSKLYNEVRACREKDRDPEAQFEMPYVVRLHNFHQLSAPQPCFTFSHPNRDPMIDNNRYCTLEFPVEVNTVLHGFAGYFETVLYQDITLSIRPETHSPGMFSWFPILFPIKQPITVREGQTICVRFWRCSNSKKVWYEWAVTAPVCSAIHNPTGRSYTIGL
PRMT5/MEP50 Complex, sequence (Q9BQA1 whole entry partner): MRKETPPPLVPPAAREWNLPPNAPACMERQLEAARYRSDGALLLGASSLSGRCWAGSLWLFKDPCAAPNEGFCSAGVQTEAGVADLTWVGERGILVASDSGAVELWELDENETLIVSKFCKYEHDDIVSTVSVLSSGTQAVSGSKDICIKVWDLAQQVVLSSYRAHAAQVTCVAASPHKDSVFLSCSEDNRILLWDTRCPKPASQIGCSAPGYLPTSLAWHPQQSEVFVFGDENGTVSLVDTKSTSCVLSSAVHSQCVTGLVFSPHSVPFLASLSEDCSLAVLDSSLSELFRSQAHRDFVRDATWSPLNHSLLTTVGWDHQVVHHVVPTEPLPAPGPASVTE

Take `Cc1ncsc1-c1ccc([C@H](C)NC(=O)[C@@H]2C[C@@H](O)CN2C(=O)[C@@H](NC(=O)CNC(=O)c2ccc(F)c(-c3ccc(N4C[C@@H](C)N(C)[C@@H](C)C4)c(NC(=O)c4c[nH]c(=O)cc4C(F)(F)F)c3)c2)C(C)(C)C)cc1` [MS67]: the remaining activity at 10 µM was 93.6% on GLP (setting [1]); 92.2% at GLP (setting [2]); 96.2% at PRMT5/MEP50 Complex (setting [1]); 97.3% on PRMT5/MEP50 Complex (setting [2]); 106% on EZH2 Complex (setting [1]); 101% at EZH2 Complex (setting [2]). Also, the remaining activity at 10 µM at EZH1 Complex (setting [1]) was 97.1%; at EZH1 Complex (setting [2]) it was 103%. Besides, the inhibition at 1 µM was 48.8% on Sigma 1; 21.1% on H3; 21.9% at H4; 31.1% at M2; 43.6% on M1; 30.9% on M4. On 5-HT3, this molecule registered an inhibition at 1 µM of 26.6%.
